Measured values taken from article PMC8854719, “Phase 1A/1B dose-escalation and -expansion study to evaluate the safety, pharmacokinetics, food effects and antitumor activity of pamiparib in advanced solid tumours” (British Journal of Cancer, 2021).
Several values for one entry are separate records, joined by “and”; a condition that tells them apart may be missing. Equal values may be shown once.

Experiments:
[1] = test system: epithelial ovarian cancer (EOC); experiment: Tumour response and PFS per RECIST v1.1, EOC efficacy-evaluable population; format: in vivo, human
Method: (§1) Tumour response was evaluated by RECIST v1.1. For patients with ovarian cancer, tumour response was assessed per RECIST v1.1 and by Gynecologic Cancer Intergroup (GCIG) CA-125 criteria. Tumour response for patients with prostate cancer was assessed by Prostate Cancer Clinical Trials Working Group 2 (PCWG2) criteria. Objective response rate (ORR) was defined as the proportion of patients achieving a confirmed complete response (CR) or partial response (PR) on study treatment. Blood tumour antigens (e.g., carcinoembryonic antigen for colorectal cancer, CA-125 for ovarian cancer and prostate-specific antigen [PSA] for mCRPC) were assessed during screening, every 6 weeks after the first pamiparib dose in the first 12 months, and every 9 weeks thereafter.
Analyses of ORR (95% confidence interval [CI]) by investigator assessment were performed using predefined subgroups of the EOC population, including age group (<65 years versus ≥65 years), baseline ECOG performance status (0 versus 1), solid tumour stage (Stage III versus IV), BRCA/HRD status (germline BRCA mutation versus wild-type or unknown; germline or somatic BRCA mutation versus wild-type or unknown; HRD-positive versus negative or unknown), and platinum response status (platinum-sensitive versus platinum-resistant versus platinum-refractory).
(§2) The safety population comprised all patients in the dose-escalation and dose-expansion phases who received at least one dose of pamiparib (Supplementary Table S2). Patients in the safety analysis set for whom valid pamiparib PK parameters were estimated and for whom evaluable PD results were available represented the PK population and the PD population, respectively. The efficacy-evaluable population included patients in the safety analysis set who had at least one evaluable postbaseline tumour assessment or those who discontinued due to clinical disease progression or early death before tumour assessment could be performed. The EOC efficacy-evaluable population was a subset of the overall efficacy-evaluable population that included patients with EOC from both the dose-escalation and dose-expansion phases. Patients in the dose-expansion phase without measurable disease at baseline per RECIST v1.1 were excluded from the efficacy-evaluable population.
Descriptive statistics were used to summarise all study data (see Supplemental Appendix). Progression-free survival (PFS) and event-free rates were estimated using the Kaplan–Meier method along with the corresponding 95% CI. Pharmacokinetic parameters were derived using standard non-compartmental methods with Phoenix WinNonlin Version 6.4 or higher (Pharsight Corp., Mountain View, California).

[2] = test system: metastatic castration-resistant prostate cancer (mCRPC); experiment: PCWG2 response and PSA progression; format: in vivo, human
Method: as §1, §2

P-glycoprotein = test system: P-glycoprotein; set-up: method as in PMID 32652442; details: cited from earlier work
[3] = test system: BCRP (breast cancer resistance protein); set-up: method as in PMID 32652442; details: cited from earlier work
[4] = set-up: method as in PMID 33128299; details: humans; current study and Phase 1 study in ovarian cancer; cited from earlier work
[5] = Phase 1 portion of NCT03333915, patients in China; cited from earlier work
[6] = EOC, Total QD Dosage Group (n=9)
[7] = Total BID dosage group, EOC efficacy-evaluable (n = 51)

C[C@]12CCCN1CC1=NNC(=O)c3cc(F)cc4[nH]c2c1c34 [pamiparib]
Best overall response: Not assessed ([1]; EOC, Total BID and QD (N=60)): 3 (5.0) n (%) | Best overall response: Not evaluable ([1]; EOC, Total BID and QD (N=60)): 2 (3.3) n (%) | Best overall response: Partial response ([1]; EOC, Total BID and QD (N=60)): 19 (31.7) n (%) | Best overall response: Progressive disease ([1]; EOC, Total BID and QD (N=60)): 2 (3.3) n (%) | Best overall response: Stable disease ([1]; EOC, Total BID and QD (N=60)): 30 (50.0) n (%) | Clinical benefit rate ([1]; EOC, Total BID and QD (N=60)): 51.7 (38.39-64.77) % (95% CI) | Disease control rate ([1]; EOC, Total BID and QD (N=60)): 88.3 (77.43-95.18) % (95% CI) | Objective response rate ([1]; EOC, Total BID and QD (N=60)): 38.3 (26.07-51.79) % (95% CI) | Best overall response: Complete response [1, 6]: 0 (0) n (%) | Best overall response: Not assessed [1, 6]: 0 (0) n (%) | Best overall response: Not evaluable [1, 6]: 1 (11.1) n (%) | Best overall response: Partial response [1, 6]: 2 (22.2) n (%) | Best overall response: Progressive disease [1, 6]: 0 (0) n (%) | Best overall response: Stable disease [1, 6]: 6 (66.7) n (%) | Clinical benefit rate [1, 6]: 33.3 (7.49-70.07) % (95% CI) | Disease control rate [1, 6]: 88.9 (51.75-99.72) % (95% CI) | ORR, subgroup Age <65 [1, 6]: 20.0 (0.51-71.64) [5/9] % (95% CI) | ORR, subgroup Age ≥65 [1, 6]: 25.0 (0.63-80.59) [4/9] % (95% CI) | ORR, subgroup Baseline ECOG performance status 0 [1, 6]: 0.0 (0.00-97.50) [1/9] % (95% CI) | ORR, subgroup Baseline ECOG performance status ≥1 [1, 6]: 25.0 (3.19-65.09) [8/9] % (95% CI) | ORR, subgroup Germline BRCA status Mutant [1, 6]: 33.3 (0.84-90.57) [3/9] % (95% CI) | ORR, subgroup Germline BRCA status Wild-type/Unknown [1, 6]: 16.7 (0.42-64.12) [6/9] % (95% CI) | ORR, subgroup Germline or somatic BRCA status Mutant [1, 6]: 33.3 (0.84-90.57) [3/9] % (95% CI) | ORR, subgroup Germline or somatic BRCA status Wild-type/Unknown [1, 6]: 16.7 (0.42-64.12) [6/9] % (95% CI) | ORR, subgroup HRD status Negative/Unknown [1, 6]: 20.0 (0.51-71.64) [5/9] % (95% CI) | ORR, subgroup HRD status Positive [1, 6]: 25.0 (0.63-80.59) [4/9] % (95% CI) | ORR, subgroup Platinum-sensitivity status Sensitive [1, 6]: 66.7 (9.43-99.16) [3/9] % (95% CI) | ORR, subgroup Solid tumor stage 3 [1, 6]: 0.0 (0.00-52.18) [5/9] % (95% CI) | ORR, subgroup Solid tumor stage 4 [1, 6]: 50.0 (1.26-98.74) [2/9] % (95% CI) | Objective response rate [1, 6]: 22.2 (2.81-60.01) % (95% CI) | PFS censored: No disease progression or death [1, 6]: 2 (22.2) n (%) | PFS censored: No postbaseline assessment [1, 6]: 0 (0) n (%) | PFS censored: ≥2 consecutive missed assessments [1, 6]: 0 (0) n (%) | PFS events: Death [1, 6]: 3 (33.3) n (%) | PFS events: Disease progression [1, 6]: 4 (44.4) n (%) | PFS: Censored [1, 6]: 2 (22.2) n (%) | PFS: Events [1, 6]: 7 (77.8) n (%) | Progression-Free Survival, Median [1, 6]: 4.9 (1.84-NE) months (95% CI) | Best overall response: Complete response [1, 7]: 4 (7.8) n (%) | Best overall response: Not assessed [1, 7]: 3 (5.9) n (%) | Best overall response: Not evaluable [1, 7]: 1 (2.0) n (%) | Best overall response: Partial response [1, 7]: 17 (33.3) n (%) | Best overall response: Progressive disease [1, 7]: 2 (3.9) n (%) | Best overall response: Stable disease [1, 7]: 24 (47.1) n (%) | Clinical benefit rate [1, 7]: 54.9 (40.3–68.9) % (95% CI) and 54.9 (40.34-68.87) % (95% CI) | Disease control rate [1, 7]: 88.2 (76.1–95.6) % (95% CI) and 88.2 (76.13-95.56) % (95% CI) | Objective response rate [1, 7]: 41.2 (27.6–55.8) % (95% CI) and 41.2 (27.58-55.83) % (95% CI) | Median time to PSA progression ([2]; PSA-evaluable population (n=6)): 4.2 months | PSA progression rate ([2]; PSA-evaluable population (n=6)): 33.3% | Responders per PCWG2 criteria (in words) ([2]; mCRPC, phase 1B Part A): No patients with mCRPC in phase 1B Part A were considered responders | Substrate of P-glycoprotein (P-glycoprotein): not a substrate | Substrate of BCRP [3]: not a substrate | Bioavailability [4]: high, with near-complete absorption | Anaemia, Grade ≥3 [5]: 27%
